Test system: rat PCA
Test: Passive Cutaneous Anaphylaxis (PCA) in rats
Format: in vivo, Male Wistar rats
Conditions: sc
Procedure: Serum containing heat-labile homocytotropic antibody was raised in rats to crystallized ovalbumin XOA by the method of Mota (I. Mota, Immunology, 7, 681, (1964)) using Bordettela pertussis vaccine as adjuvant.
Passive cutaneous anaphylaxis (PCA) was carried out by a method based on that of Ovary and Bier, (A. Ovary and O. G. Bier, Proc. Soc. Exp. Bio. Med 81, 584, (1952)) as modified by Goose and Blair. (Immunology 16, 749 (1969)).
Male Wistar rats of 250-300 g were give 0.1 ml of each of six twofold serial dilutions of pooled antiserum in 0.9% saline injected intradermally into separate sites on their shaved backs. Later (72 hours) the animals were challenged by intravenous injection of 0.3 ml of a 1% solution of ovalbumin in an isotonic solution of saline buffered with 0.05 M, pH 7.2, Sorenson Buffer (PBS), mixed with 0.2 ml of a 5% solution of Pontamine Sky Blue (6BX C.I. 24410, Raymond A. Lamb, London) in isotonic saline. The rats were killed after 20 minutes and the diameter of the blue wheals at the antibody injection sites were measured on the outer surface of the skin. The starting dilution of the serum was adjusted so that there was no response, after challenge, at the injection site of the highest dilution and a maximum response at the lowest dilutions. Typically six twofold serial dilutions of the serum from 1/4 to 1/128 were used.
Compounds were tested for their ability to reduce the diameter of the wheals at those intradermal sites which in control animals gave less than maximum response. Each dose of the compound was administered to six rats at a measured time prior to intravenous challenge with ovalbumin. Control groups of six rats were given the same volume (0.2 ml: 100 g^-1) of carrier fluid at the same time prior to the challenge.
The results were calculated as follows: % inhibition of PCA=100 (1-a/b) where a=the sum of the diameters of the wheals produced in the test animal at the sites of antibody dilutions as used in control groups and b=the mean sum of the diameters of the wheals produced in the control groups of animals at those antibody sites where at least five out of six of the animals gave less than maximum response. A typical variation in the control group of animals was SEM±6%.
*Time between administration of compound and antigen challenge.

Cc1c(O)ccc2c(=O)c3[nH]nnc3oc12 [Example 1f, 6-Hydroxy-5-methyl-9-oxo-1H,9H-benzopyrano[2,3-d]-v-triazole]
% inhibition of rat PCA (PBS with NaHCO3, 10' before antigen challenge, 10 mg/kg): 32%
% inhibition of rat PCA (PBS with NaHCO3, 30' before antigen challenge, 10 mg/kg): 19%

Cc1c(OS(C)(=O)=O)ccc2c(=O)c3[nH]nnc3oc12 [Example 1e, 6-Mesyloxy-5-methyl-9-oxo-1H,9H-benzopyran o[2,3-d]-v-triazole]
% inhibition of rat PCA (PBS with NaHCO3, 10' before antigen challenge, 5 mg/kg): 42%
% inhibition of rat PCA (PBS with NaHCO3, 10' before antigen challenge, 20 mg/kg): 57%
% inhibition of rat PCA (PBS with NaHCO3, 30' before antigen challenge, 5 mg/kg): 18%
% inhibition of rat PCA (PBS with NaHCO3, 30' before antigen challenge, 20 mg/kg): 41%
